# Laboratory results from ChEMBL document CHEMBL1201862, “PubChem BioAssay data set” (2004).
#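 96-well plates; 48 h exposure; 5 concentrations. Endpoints by linear interpolation between flanking doses. Not reached: highest tested concentration assigned. The concentration for 50% growth inhibition is given as GI50.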 Active and inactive are the calls of the source. Cut-off read from the data, not from the text of the source: active = GI50 up to about 1.1 µM and inactive = higher.
# What was measured:
# Experiment in all cases: inhibition of tumour cell growth, NCI panel, 48 h
# [1] = test system: SF-268
# [2] = test system: MCF7
# [3] = test system: OVCAR-3
# [4] = test system: PC-3
# [5] = test system: NCI/ADR-RES
# [6] = test system: OVCAR-5
# [7] = test system: IGROV-1
# [8] = test system: CAKI-1
# [9] = test system: SK-MEL-28
# [10] = test system: NCI-H23
# [11] = test system: TK-10
# [12] = test system: SK-MEL-5
# [13] = test system: MDA-MB-435
# [14] = test system: HOP-92
# [15] = test system: RPMI-8226
# [16] = test system: MOLT-4
# [17] = test system: HCC 2998
# [18] = test system: SNB-19
# [19] = test system: SN12C
# [20] = test system: OVCAR-8
Structure (SMILES),GI50 [1],GI50 [2],GI50 [3],GI50 [4],GI50 [5],GI50 [6],GI50 [7],GI50 [8],GI50 [9],GI50 [10],GI50 [11],GI50 [12],GI50 [13],GI50 [14],GI50 [15],GI50 [16],GI50 [17],GI50 [18],GI50 [19],GI50 [20]
CC1(C)N=C(/C(C#N)=[N+](/[O-])C(=O)c2ccccc2)C(C)(C)N1O,> 100 µM (inactive),> 100 µM (inactive),> 100 µM (inactive),> 100 µM (inactive),> 100 µM (inactive),> 100 µM (inactive),> 100 µM (inactive),> 100 µM (inactive),> 100 µM (inactive),> 100 µM (inactive),> 100 µM (inactive),> 100 µM (inactive),> 100 µM (inactive),> 100 µM (inactive),> 100 µM (inactive),> 100 µM (inactive),> 100 µM (inactive),> 100 µM (inactive),> 100 µM (inactive),> 100 µM (inactive)
C[n+]1ccccc1/C1=c2\cc/c([nH]2)=C(\c2cccc[n+]2C)C2=N/C(=C(/c3cccc[n+]3C)C3C=CC(N3)/C(c3cccc[n+]3C)=C3/C=CC1=N3)C=C2,> 100 µM (inactive),> 100 µM (inactive),58.7 µM (inactive),> 100 µM (inactive),> 100 µM (inactive),> 100 µM (inactive),92.9 µM (inactive),> 100 µM (inactive),> 100 µM (inactive),> 100 µM (inactive),> 100 µM (inactive),71.4 µM (inactive),57 µM (inactive),90.6 µM (inactive),56.1 µM (inactive),58.1 µM (inactive),> 100 µM (inactive),> 100 µM (inactive),> 100 µM (inactive),> 100 µM (inactive)
C[C@H]1COC2=C1C(=O)C(=O)c1c2ccc2c1CCCC2(C)C [CRYPTOTANSHINONE],1.9 µM (inactive),2.22 µM (inactive),0.326 µM (active),4.93 µM (inactive),2.79 µM (inactive),16.1 µM (inactive),2.71 µM (inactive),8.22 µM (inactive),3.19 µM (inactive),1.55 µM (inactive),8.18 µM (inactive),0.382 µM (active),1.42 µM (inactive),40.8 µM (inactive),3.31 µM (inactive),4.24 µM (inactive),2.48 µM (inactive),2.52 µM (inactive),4.37 µM (inactive),2.58 µM (inactive)
C=C1C(=O)O[C@H]2[C@@H]3O[C@@](C)(CC/C=C(\C)CCC[C@@H]2C)[C@H](O)C[C@@H]13,16.8 µM (inactive),2.08 µM (inactive),2.59 µM (inactive),8.49 µM (inactive),2.04 µM (inactive),13.2 µM (inactive),4.72 µM (inactive),1.42 µM (inactive),7.31 µM (inactive),1.61 µM (inactive),4.81 µM (inactive),2.08 µM (inactive),3.06 µM (inactive),3.42 µM (inactive),2.25 µM (inactive),3.08 µM (inactive),5.02 µM (inactive),> 10 µM (inactive),2.28 µM (inactive),3.15 µM (inactive)
Nc1cc2c3c(cccc3c1)C(=O)N(c1ccc(OCCN3CCCCC3)cc1)C2=O,19.1 µM (inactive),19.1 µM (inactive),16.7 µM (inactive),17.4 µM (inactive),19.2 µM (inactive),20.8 µM (inactive),17.6 µM (inactive),17.8 µM (inactive),22.2 µM (inactive),16.1 µM (inactive),16.5 µM (inactive),15.3 µM (inactive),24.7 µM (inactive),14.9 µM (inactive),18.3 µM (inactive),12.1 µM (inactive),19.9 µM (inactive),18.3 µM (inactive),15.9 µM (inactive),16.1 µM (inactive)
Nc1nc(Cl)cc(NC23CC4CC(CC(C4)C2)C3)n1,47.1 µM (inactive),85.9 µM (inactive),> 100 µM (inactive),29.2 µM (inactive),42.9 µM (inactive),> 100 µM (inactive),57.3 µM (inactive),> 100 µM (inactive),> 100 µM (inactive),34 µM (inactive),–,–,> 100 µM (inactive),> 100 µM (inactive),> 100 µM (inactive),> 100 µM (inactive),> 100 µM (inactive),> 100 µM (inactive),> 100 µM (inactive),90.6 µM (inactive)
CCOC(=O)N1CCN(Cc2cc(=O)n3cc(C)ccc3n2)CC1,> 100 µM (inactive),> 100 µM (inactive),> 100 µM (inactive),> 100 µM (inactive),> 100 µM (inactive),> 100 µM (inactive),> 100 µM (inactive),> 100 µM (inactive),> 100 µM (inactive),> 100 µM (inactive),> 100 µM (inactive),–,> 100 µM (inactive),> 100 µM (inactive),> 100 µM (inactive),> 100 µM (inactive),> 100 µM (inactive),> 100 µM (inactive),> 100 µM (inactive),> 100 µM (inactive)
Nc1cccc(S(=O)(=O)Nc2nnc(S(N)(=O)=O)s2)c1,> 100 µM (inactive),> 100 µM (inactive),> 100 µM (inactive),> 100 µM (inactive),> 100 µM (inactive),> 100 µM (inactive),> 100 µM (inactive),> 100 µM (inactive),> 100 µM (inactive),> 100 µM (inactive),> 100 µM (inactive),> 100 µM (inactive),> 100 µM (inactive),> 100 µM (inactive),> 100 µM (inactive),> 100 µM (inactive),> 100 µM (inactive),> 100 µM (inactive),–,> 100 µM (inactive)
C=C1N(S(=O)(=O)c2ccc(C)cc2)C(=O)OCC12CCCC2,–,> 100 µM (inactive),52.4 µM (inactive),34.6 µM (inactive),81.7 µM (inactive),> 100 µM (inactive),31.3 µM (inactive),94.4 µM (inactive),> 100 µM (inactive),59.3 µM (inactive),> 100 µM (inactive),25.4 µM (inactive),> 100 µM (inactive),> 100 µM (inactive),> 100 µM (inactive),77.4 µM (inactive),> 100 µM (inactive),> 100 µM (inactive),–,> 100 µM (inactive)
O=C1CC(c2cccc(Cl)c2)Oc2ccccc21 (stereo unspecified),22.3 µM (inactive),6.4 µM (inactive),–,15.7 µM (inactive),26.2 µM (inactive),–,15 µM (inactive),6.18 µM (inactive),18.6 µM (inactive),10.2 µM (inactive),> 10 µM (inactive),17.9 µM (inactive),17.4 µM (inactive),15.2 µM (inactive),3.65 µM (inactive),–,15.4 µM (inactive),15.3 µM (inactive),–,29.2 µM (inactive)
COc1ccc(NC(=S)Nc2c(C)n(C)n(-c3ccccc3)c2=O)cc1,> 100 µM (inactive),> 100 µM (inactive),> 100 µM (inactive),> 100 µM (inactive),> 100 µM (inactive),> 100 µM (inactive),> 100 µM (inactive),> 100 µM (inactive),> 100 µM (inactive),> 100 µM (inactive),> 100 µM (inactive),> 100 µM (inactive),> 100 µM (inactive),> 100 µM (inactive),> 100 µM (inactive),> 100 µM (inactive),> 100 µM (inactive),> 100 µM (inactive),–,> 100 µM (inactive)
CC(C)(Br)C(=O)N1CCN(C(c2ccccc2)c2ccccc2)CC1,64 µM (inactive),24.3 µM (inactive),19.8 µM (inactive),50.1 µM (inactive),> 100 µM (inactive),> 100 µM (inactive),> 100 µM (inactive),84.1 µM (inactive),> 100 µM (inactive),> 100 µM (inactive),> 100 µM (inactive),61.4 µM (inactive),> 100 µM (inactive),68.4 µM (inactive),–,30.1 µM (inactive),> 100 µM (inactive),> 100 µM (inactive),84.9 µM (inactive),> 100 µM (inactive)
Cc1[nH]c(=O)nc(NCCNCCO)c1C(=O)Nc1c2ccccc2nc2ccccc12,–,> 100 µM (inactive),> 100 µM (inactive),> 100 µM (inactive),> 100 µM (inactive),> 100 µM (inactive),> 100 µM (inactive),> 100 µM (inactive),> 100 µM (inactive),> 100 µM (inactive),> 100 µM (inactive),> 100 µM (inactive),> 100 µM (inactive),> 100 µM (inactive),> 100 µM (inactive),> 100 µM (inactive),> 100 µM (inactive),> 100 µM (inactive),> 100 µM (inactive),> 100 µM (inactive)
Cc1ccc(SCC(CSCCO)OCn2cnc3c2N=C(N)NC32OCCO2)cc1 (stereo unspecified),> 100 µM (inactive),> 100 µM (inactive),> 100 µM (inactive),> 100 µM (inactive),> 100 µM (inactive),> 100 µM (inactive),> 100 µM (inactive),> 100 µM (inactive),> 100 µM (inactive),> 100 µM (inactive),> 100 µM (inactive),> 100 µM (inactive),> 100 µM (inactive),> 100 µM (inactive),> 100 µM (inactive),> 100 µM (inactive),> 100 µM (inactive),> 100 µM (inactive),–,> 100 µM (inactive)
